Laboratory results reported in patent publication US20240165196A1, “Beta-Lactamase Inhibitors” (VIB VZW, priority 2021, published 2024).

Legend:
[1] = peptide solubility and self-aggregation (DLS, Thioflavin T, electron microscopy, pFTAA)
Description: Three replicates are shown for each condition. […] A single representative image is shown. […] Three replicates are shown for each condition. […] A single representative image is shown. […] A single representative image is shown. […] A single representative image is shown.
A DynaPro DLS plate reader instrument (Wyatt, Santa Barbara, CA, USA) equipped with an 830 nm laser source was used to determine the hydrodynamic radius (RH) of the peptide particles. Two hundred microliters of each sample (at 100 or 10 μM, unless stated otherwise) were placed into a flat-bottom 96-well microclear plate (Greiner, Frickenhausen, Germany). The autocorrelation of scattered light intensity at a 32° angle was recorded for 5 s and averaged over 20 recordings to obtain a single data point. The Wyatt Dynamics v7.1 software was used to calculate the hydrodynamic radius by assuming […] particles. The amyloid-specific dye Thioflavin-T (Th-T, Sigma-Aldrich, CAS number 2390-54-7) was used to study the aggregation state of peptides.

[2] = system: primary mouse cortical neurons; format: cell-based
[3] = system: E. coli strains carrying NDMs; assay: checkerboard assay (FICI), TEM3.2 and penicillin; format: cell-based; conditions: strains containing NDMs; significant spread
Description: FIGS. 4A-4K. […] IV—Intravenous, IP—Intraperitoneal, SC—Subcutaneously. The data shown is from a single experiment with 4 animals per group. […] (ns—non significant, #—P>0.05, *—P≤0.05, ***—P≤0.01, ****—P≤0.001). (FIG. 4G) FICI plot as in FIG. 2, for the E. coli strains indicated and the combination of penicillin and the TEM3.2 peptide. […] (FIG. 4J) Same as FIG. 4H for peptide BGAL. (FIG. 4K) Same as FIG. 4H for peptide P33.
As we wondered about the generality of our peptide design approach, we set out to design a peptide to inactivate a structurally unrelated beta-lactamase. […] This enzyme was first isolated from a patient in 200850, by 2010 could be detected in clinical isolates throughout the UK and India^51 and by 2015 was detected in over 70 countries worldwide^52.
For the analysis of the synergy between the peptides with other antibiotics, a checkerboard assay was performed. […] FICI is calculated as the sum of the individual fractional inhibitory concentrations (FICs) for each drug (where MIC A and MIC B denote the MIC of each drug alone, and MIC AA+B and MIC BA+B denote the concentrations of A and B in the drug combination). […]

Substance: Ac-RLTAFLHNRRPRLTAFLRQRR-NH2 [TEM3.2]
- solubility by Dynamic Light Scattering ([1]; 50 μM peptide in buffer alone (50 mM Tris pH 8.5, 300 mM NaCl)): soluble in vitro
- aggregation of the peptide in presence of polyphosphate (ThT binding, electron microscopy) ([1]; 50 μM peptide, buffer with polyP): amyloid-like aggregation
- cytotoxicity (Cell Titer Blue) [2]: not cytotoxic
- synergy with penicillin (FICI) [3]: little or no synergy
